Assay results published in the METLIN SMRT retention time set (Domingo-Almenara et al. 2019).

Test: gradient 5% acetonitrile 3 min, to 50% in 2 min, to 85% in 15 min, held 3 min, 100 µL/min
Settings: column: Zorbax Extend-C18 2.1 x 50 mm; eluents: water / acetonitrile, 0.1% formic acid
Outline: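 Pure standards were run in mixtures of ~100 molecules by HPLC coupled to a quadrupole time-of-flight mass spectrometer. The column was a Zorbax Extend-C18 (2.1 × 50 mm, 1.8 μm) at 100 μL/min, with water and acetonitrile each containing 0.1% formic acid, in positive and negative ionization mode. Dead and dwell volumes were 40 μL and 900 μL. Retention time was taken from computationally picked adduct peaks, each manually inspected, with data collected over 3 months.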

| SMILES | RP-LC retention time [s] |
| --- | --- |
| CSc1cccc(NC(=O)C2CCN(C(=O)c3cc(-c4ccncc4)n[nH]3)CC2)c1 | 637 |
| CCn1cc(S(=O)(=O)N2CCOc3ccc(NC(=O)C4CC4)cc3C2)cn1 | 734 |
| O=C(Cc1ccsc1)N1CCc2cc(-c3csc(C4CC4)n3)ccc21 | 1120 |
| CCc1cccc(C)c1Nc1c(-c2ccc(N3CCOCC3)cc2)nc2ncccn12 | 806 |
| CCN(CC)CCNC(=O)C(C)n1c(=O)c(C(F)(F)F)nc2ccccc21 (centres undefined) | 669 |
| Cc1ccc(C)c(S(=O)(=O)N2CC(c3noc(C)n3)C3(CCOCC3)C2)c1 (centres undefined) | 929 |
| CCC(=O)N1CCc2ccccc2C1C(=O)NCc1cccc(Br)c1 (centres undefined) | 828 |
| CCc1nnc2cc(N3CCN(Cc4cn[nH]c4-c4ccccc4)CC3)cnn12 | 541 |
| COc1ccccc1NC(=O)N1CC(c2nc(C)no2)C2(CCOCC2)C1 (centres undefined) | 676 |
| CCCc1nc(-c2ccnc(N3CCOCC3)c2)no1 | 749 |
| CNC(=O)c1cnn(-c2cccc(F)c2)c1-n1cccc1 | 777 |
| COc1cc2oc(=O)cc(C)c2cc1[N+](=O)[O-] | 764 |
| c1ccc(-c2nc3nc4c(c(Nc5ccc6c(c5)OCCO6)n3n2)CCCC4)cc1 | 970 |
| CCN1CCCC(C(=O)NCc2cccs2)(c2ccccc2)CC1 (centres undefined) | 643 |
| O=C(C1=CCN(Cc2ccccc2)CC1)N1CCN(c2cccc(Cl)c2)CC1 | 707 |
| O=C(Nc1nc(-c2ccc([N+](=O)[O-])cc2)cs1)C1=COCCO1 | 844 |
| O=C(c1cccc(F)c1)N1CCN(c2ccc(=O)n(-c3ccc(Cl)cc3)n2)CC1 | 871 |
| O=C(c1cc(-c2ccco2)[nH]n1)N1CCN(c2ncccn2)CC1 | 640 |
| Cc1ccc(NC(=O)N2CCc3nc[nH]c3C2)c(Cl)c1 | 585 |
| Cc1ccsc1C(=O)N1CCC2(CC1)NC(=O)N(Cc1ccccc1)C2=O | 768 |

| SMILES | RP-LC retention time [s] |
| --- | --- |
| O=C(Cc1ccc(F)cc1)Nc1nnc(-c2ccc(Br)cc2)s1 | 952 |
| Cc1nc2cc(-c3ccc(Cl)cc3)nn2c(C)c1CCC(=O)N1CCN(c2ccccn2)CC1 | 727 |
| Cc1sc2cc(C(=O)NC(C)(C)C)[nH]c2c1CN1CCCCC1 | 681 |
| COc1cc(C(=O)N2CCN(c3cc(C)n4cnnc4n3)CC2)cc(OC)c1OC | 575 |
| Cc1ncsc1CN1CC(Cn2c(C)cnc2-c2ccncc2)C1 | 818 |
| CCc1noc(-c2cccnc2N2CCCN(Cc3ccc(Br)cc3)CC2)n1 | 730 |
| COC(=O)c1sccc1NC(=O)N1CCc2c([nH]c3ccccc23)C1c1ccc(F)cc1 (centres undefined) | 1300 |
| Cc1nnsc1C(=O)Nc1onc2c1CSC2 | 666 |
| O=C(Nc1nccs1)c1ccc2c(c1)CCCC2 | 869 |
| O=C(NCCc1ccncc1)C1CCc2sc(C(=O)N3CCCC3)cc2C1 (centres undefined) | 506 |
| O=C(NCc1nc2ccccc2n1CCCCOc1ccccc1Cl)c1ccco1 | 660 |
| CCc1nc2cc(N3CCCC(C(=O)O)C3)cnc2nc1CC (centres undefined) | 693 |
| COc1ccccc1-c1nc(SCC(=O)N2CCC(C(N)=O)CC2)n[nH]1 | 614 |
| Cc1ccc(-n2nc(C)c(S(=O)(=O)N3CCC(C(=O)NC4CC4)CC3)c2C)cc1 | 789 |
| Cc1ccccc1-c1nc(Cn2c(C)nc3onc(C)c3c2=O)c(C)o1 | 1120 |
| O=S(=O)(NCc1cccnc1)c1ccc(Cl)cc1 | 566 |
| Cn1ncc2c(NCc3ccccc3)nc(NCc3ccccc3)nc21 | 652 |
| COc1cccc(OC)c1C(=O)Nc1nc(-c2ccc3c(c2)NC(=O)C(C)O3)c(C)s1 (centres undefined) | 866 |
| CCC(CC)N1CCN(C(=O)c2ccc3[nH]c4c(c3c2)CN(C(=O)C2CCC2)CC4)CC1 | 607 |
| CC(=O)N1CCC(n2c(C)nc(C(=O)Nc3ccc4c(c3)OCO4)c2C)CC1 | 603 |

| SMILES | RP-LC retention time [s] |
| --- | --- |
| O=C(Nc1cccc(F)c1)C1CCCN(S(=O)(=O)c2c[nH]c(C(=O)N3CCCCCC3)c2)C1 (centres undefined) | 919 |
| Cc1cc2nn(CC(=O)Nc3cc(F)ccc3F)c(=O)n2c(Nc2ccc(F)c(C)c2)n1 | 1100 |
| COc1cc(Cn2c(N)c(C#N)c3nc4ccccc4nc32)cc(OC)c1OC | 720 |
| CN1CCC(=C2c3ccccc3C(O)c3ccccc32)CC1 (centres undefined) | 665 |
| CCN(CC)CCCNC(=O)C1c2cc(OC)c(OC)cc2C(=O)N2CCc3ccccc3C12 (centres undefined) | 608 |
| O=C(Nc1ccc(Cl)cc1)C1CCCN1S(=O)(=O)c1cccc2nsnc12 (centres undefined) | 924 |
| O=C(NCC1CCOCC1)Nc1cccc(Cl)c1 | 735 |
| CN1C(=O)COc2ccc(-c3csc(NC(=O)c4cccc(Br)c4)n3)cc21 | 1060 |
| Cc1cc2c(=O)n(CC(=O)Nc3ccc(F)c(C)c3)c3cccnc3n2n1 | 748 |
| Cc1ccc(-c2nocc2CCC(=O)NC(C)c2ccc(F)cc2)cc1 (centres undefined) | 953 |
| Cc1ccccc1-c1noc(CN2C(=O)COc3ccc(Cl)cc32)n1 | 1120 |
| Cc1ccc(CN2C(=O)CN(S(C)(=O)=O)CC2(C)C(=O)NC2CCCCCCC2)cc1 (centres undefined) | 930 |
| Cn1nc(-c2nnc(-c3ccc(F)cc3)o2)c2c1CCN(S(=O)(=O)c1ccc(F)c(Cl)c1)C2 | 990 |
| CCOC(=O)C1CCCN(c2ncnc3c2cnn3-c2ccccc2)C1 (centres undefined) | 1070 |
| CCC(c1cccs1)N1C(=O)[C@H]2CN(S(=O)(=O)c3ccccc3F)C[C@H]2C1=O (some centres undefined) | 972 |
| CC(C)c1noc(C2(NC(=O)c3cnccn3)CCCCC2)n1 | 894 |
| Cc1ccn2cc(-c3ccc(NC(=O)c4cccs4)cc3)nc2n1 | 636 |
| CCc1ccccc1NC(=O)N1CCC2(CC1)NC(=O)c1cc(F)ccc1N2C | 791 |
| O=C(NCc1ccco1)C1CCCN(S(=O)(=O)Cc2ccc(Cl)cc2)C1 (centres undefined) | 888 |
| Cn1nc(N2CCC(NC(=O)C3CCCCC3)C2)ccc1=O (centres undefined) | 649 |

Other lines, results leading:

| RP-LC retention time [s] | SMILES |
| --- | --- |
| 861 | CCOc1ccc(-c2[nH]ncc2CNS(=O)(=O)Cc2ccc(Cl)cc2)cc1 |
| 805 | O=C(C1CC1)N1CCc2sc(S(=O)(=O)NCc3ccc(F)cc3)cc2C1 |
| 541 | O=C(Nc1ccc2cn[nH]c2c1)c1ccc2nc[nH]c2c1 |
| 972 | CCOc1ccc(NC(=O)C2CCN(S(C)(=O)=O)c3cc(C)ccc3O2)cc1 (centres undefined) |
| 666 | Cc1c(Cl)ccc2c(=O)c3c([nH]c12)CCN(CC(=O)NCc1ccc2c(c1)OCO2)C3 |
| 764 | CC(C)n1cnc(S(=O)(=O)N2CCC(C(=O)NCCCc3ccccc3)CC2)c1 |
| 930 | COc1ccc(OC)c(NC(=O)c2cc3c(n(-c4ccc(F)cc4)c2=O)CCCC3=O)c1 |
| 808 | Cc1ccc(Cn2c(=O)n(CCNC(=O)c3cccs3)c3ncccc32)cc1 |
| 885 | CCOCCCNC(=O)C1=NN(c2ccc(F)cc2)c2ccc(F)cc2S1(=O)=O |
| 1140 | CC(C)c1cc(C(=O)Nc2cccc(F)c2)nc2ccnn12 |
| 667 | COc1ccc(CCC(=O)N2CCC[C@@H]2C(=O)NCCc2csc(C)n2)cc1 |
| 1320 | Cc1ccc(CNS(=O)(=O)c2cc(-c3nc(C(C)(C)C)cs3)cs2)cc1 |
| 1140 | CCc1ccc(S(=O)(=O)N2CCc3nc(-c4ccc(OC)cc4)ncc3C2)cc1 |
| 1300 | COC(=O)c1ccc2c(=O)n(CCc3ccccc3)c(N3CCCCCC3)nc2c1 |
| 846 | CCOc1ccccc1NC(=O)C1CCN(S(=O)(=O)c2cn(C(C)C)cn2)CC1 |
| 754 | CC(C)Oc1ccc(CNC(=O)c2ccc3c(c2)nc2n3CCN(C(C)C)C2=O)cc1 |
| 846 | CCc1noc(NC(C)=O)c1-c1ccc(OC)c(S(=O)(=O)Nc2cc(C)ccc2C)c1 |
| 904 | COc1ccc(S(=O)(=O)NCc2ccc3c(c2)CCN3C(=O)c2ccccc2)cc1 |
| 641 | O=C(NCc1cccs1)c1nc(N2CCOCC2)c2ccccc2n1 |
| 604 | Cn1c(CN2CCN(C(=O)c3ccc(C#N)cc3)CC2)nc2cc(C(=O)N3CCCC3)ccc21 |
| 1010 | CC(C)Oc1ccc(-c2noc(-c3nn(-c4cccc(F)c4)ccc3=O)n2)cc1 |
| 871 | CC1(C(=O)NCc2ccc(F)cc2)CCN(C(=O)Nc2ccccc2Br)CC1 |
| 598 | CN(C)c1ccc(CNC(=O)C2CCN(S(=O)(=O)c3ccc4c(c3)NC(=O)CO4)CC2)cc1 |
| 644 | Cc1ccc2c(Nc3ccc(C)c(C)c3)c(C(=O)N3CCSCC3)cnc2n1 |
| 870 | COc1ccccc1C(=O)NC1CCN(c2ccc(C)cc2)C1=O (centres undefined) |
| 834 | CCCn1c(=O)c2c(nc3n2CCN3c2ccc(OC)cc2)n(C)c1=O |
| 945 | CCS(=O)(=O)c1ccc2c(c1)N(Cc1nc(-c3ccc(C)cc3)no1)C(=O)CO2 |
| 810 | COc1ccc(C)cc1NC(=O)C1CCN(S(=O)(=O)c2cn(C(C)C)cn2)CC1 |
| 791 | Cc1cc2nc(C(=O)OC(C)C)c(N3CCN(c4ccccn4)CC3)nc2cc1C |
